Where “and” joins values, the source holds several entries; their conditions need not be identical. Identical values can stand only once.

Series [1] concerns the target T1, PKCε (Homo sapiens, UniProt Q02156).
T1 sequence (Q02156 1-737): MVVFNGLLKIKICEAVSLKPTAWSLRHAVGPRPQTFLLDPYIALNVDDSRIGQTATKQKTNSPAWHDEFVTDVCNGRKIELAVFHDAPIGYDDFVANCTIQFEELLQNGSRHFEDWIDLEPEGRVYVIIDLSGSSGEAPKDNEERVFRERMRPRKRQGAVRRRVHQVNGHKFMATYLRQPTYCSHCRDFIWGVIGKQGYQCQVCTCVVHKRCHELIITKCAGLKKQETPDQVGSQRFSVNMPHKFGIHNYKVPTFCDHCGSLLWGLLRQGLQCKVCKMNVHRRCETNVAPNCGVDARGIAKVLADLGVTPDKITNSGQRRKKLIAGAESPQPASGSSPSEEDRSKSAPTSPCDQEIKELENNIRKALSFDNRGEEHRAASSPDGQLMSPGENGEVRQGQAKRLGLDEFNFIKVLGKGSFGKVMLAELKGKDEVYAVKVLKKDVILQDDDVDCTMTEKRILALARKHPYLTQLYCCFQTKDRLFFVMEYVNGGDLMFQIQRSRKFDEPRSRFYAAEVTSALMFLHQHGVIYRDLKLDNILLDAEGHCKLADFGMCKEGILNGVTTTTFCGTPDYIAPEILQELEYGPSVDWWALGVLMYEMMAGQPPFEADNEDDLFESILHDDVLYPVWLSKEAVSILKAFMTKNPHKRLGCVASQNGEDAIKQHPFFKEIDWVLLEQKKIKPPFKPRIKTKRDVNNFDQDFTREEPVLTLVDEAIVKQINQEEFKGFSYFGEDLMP
Kind of series: Z'-Lyte recombinant enzyme assay, PKCε. In kind it is biochemical. The protocol:
(§1) Half maximal inhibitory concentrations of Cmpd 1 were determined by Z’-Lyte biochemical assays (Life Technologies SelectScreen™ Kinase Profiling Services, Thermo Fisher Scientific). Kinome selectivity was determined at 1 μM Cmpd 1 concentration against a panel of 119 kinases. The original kinome tree in Fig. 1b was taken from Ref.[68].

In series [2] the target is PKCη (Homo sapiens, UniProt P24723). The series is described as follows: Z'-Lyte recombinant enzyme assay, PKCη. Format: biochemical. As for the experimental part: as §1
Series [3] has as its system ZSF1 lean and SD rats. The series is described as follows: 7-day food consumption and body weight study, Cmpd 1 chow, ZSF1 lean and SD rats. The following applies: 7 days. Format: in vivo, rat. The text has this:
To evaluate food consumption in different rat strains, cohorts of 10 male ZSF1 obese rats, 8 male ZSF1 lean littermate rats, and 10 age-matched male Sprague Dawley (SD) rats were divided into two groups and fed chow with or without 0.744 g/kg Cmpd 1 (Cmpd 1 chow) for 7 days.

In series [4] the test system is ZSF1 obese rats. Kind of series: 10-week efficacy study with chow dosing. In kind it is in vivo, rat. The text has this:
Male ZSF1 (ZSF1-Lepr^faLepr^cp/Crl) lean rats (strain code #379) and ZSF1 obese rats (strain code #378) were obtained from Charles River Laboratories (Wilmington, MA). Male rats for all groups were obtained at 8–9 weeks of age at which time they were switched to high carbohydrate Purina 5008 chow (27% kcal protein, 17% kcal fat, 57% kcal carbohydrates). At 21–22 weeks of age they were then enrolled in the 10 week study. All groups were maintained on normal Purina 5008 chow for the 10 week study except the Cmpd 1 group, which was provided Purina 5008 chow formulated with 0.744g Cmpd 1 per kg chow (approximately 50 mpk/d Cmpd 1 administration; n = 5 Lean, n = 12 Obese, n = 11 Cmpd 1, n = 11 Food matched—see Fig. 4a). The amount of food provided to the Food matched group each week was determined by the estimated food consumption by the Cmpd 1 group the previous week. For all three ZSF1 obese groups, 3 animals were taken down at study mid-point for an interim analysis. All experimental protocols involving animals were reviewed and approved by the Pfizer Inc. Institutional Animal Care and Use Committee (IACUC). All experiments were performed in accordance with relevant guidelines and regulations, and all methods are reported in accordance with ARRIVE guidelines (https://arriveguidelines.org).
Male ZSF1 obese rats that had been maintained on Purina 5008 chow were switched to Purina 5008 chow with or without 0.744 g/kg Cmpd 1 at 22 weeks of age. The study duration was 10 weeks. Estimated food consumption monitored weekly. An additional group of ZSF1 obese rats was included which received an amount of Purina 5008 chow to match the previous week’s estimated food consumption by the Cmpd 1 group. Five male ZSF1 lean littermates served as baseline controls. Intermediate blood samples were taken through tail vein. 24-h urine samples at weeks 0, 5 and 10 were collected from animals in metabolic cages. Animals were sacrificed by CO2 asphyxiation followed by blood collection via cardiac puncture and tissues fixation in 10% neutral buffered formalin for histology. Unfixed inguinal white adipose tissue was also collected at study termination for downstream molecular analyses.
All assays except the insulin assay were run with the ADVIA 1800 Chemistry System (Siemens Medical Systems Diagnostics, Tarrytown, NY, USA). The serum insulin assay was run using a SpectraMax® Plus384 Absorbance Microplate Reader (Molecular Devices San Jose, CA, USA). Siemens Medical System assay kits 10376501, 10311891, 10335892, and 10335891 were used for cholesterol, low density lipoprotein (LDL)-cholesterol, triglycerides, and glucose, respectively. Roche HDL-C Reagent 3rd generation assay kit 4713257190 was used for high density lipoprotein (HDL)-cholesterol assay. For insulin, an ALPCO Diagnostics assay kit 80-INSMS-E01 was used.
Samples of formalin-fixed, paraffin embedded (FFPE) liver and kidney were sectioned and stained for Hematoxylin and Eosin (HE) and evaluated microscopically by a board-certified veterinary pathologist blinded to the treatment groups. In the kidney, microscopic features were assigned an end stage renal disease (ESRD) severity score of 1–5 (minimal to severe) using the following criteria: Grade 1 (minimal): < 10% of parenchyma affected, few glomeruli affected and no Bowman’s capsule thickening with only few protein casts and basophilic tubules observed; Grade 2 (mild): 10–25% of renal parenchyma affected, there is scattered thickening of Bowman’s capsule, +/− synechiation; Grade 3 (moderate): 26–50% of renal parenchyma affected, glomerular and tubulointerstitial changes are present; Grade 4 (marked): 51–75% of renal parenchyma affected, glomerular and tubulointerstitial changes are present; Grade 5 (severe): > 75% of renal parenchyma affected, glomerular and tubulointerstitial changes are present. […]

PKCη, sequence (P24723 whole entry): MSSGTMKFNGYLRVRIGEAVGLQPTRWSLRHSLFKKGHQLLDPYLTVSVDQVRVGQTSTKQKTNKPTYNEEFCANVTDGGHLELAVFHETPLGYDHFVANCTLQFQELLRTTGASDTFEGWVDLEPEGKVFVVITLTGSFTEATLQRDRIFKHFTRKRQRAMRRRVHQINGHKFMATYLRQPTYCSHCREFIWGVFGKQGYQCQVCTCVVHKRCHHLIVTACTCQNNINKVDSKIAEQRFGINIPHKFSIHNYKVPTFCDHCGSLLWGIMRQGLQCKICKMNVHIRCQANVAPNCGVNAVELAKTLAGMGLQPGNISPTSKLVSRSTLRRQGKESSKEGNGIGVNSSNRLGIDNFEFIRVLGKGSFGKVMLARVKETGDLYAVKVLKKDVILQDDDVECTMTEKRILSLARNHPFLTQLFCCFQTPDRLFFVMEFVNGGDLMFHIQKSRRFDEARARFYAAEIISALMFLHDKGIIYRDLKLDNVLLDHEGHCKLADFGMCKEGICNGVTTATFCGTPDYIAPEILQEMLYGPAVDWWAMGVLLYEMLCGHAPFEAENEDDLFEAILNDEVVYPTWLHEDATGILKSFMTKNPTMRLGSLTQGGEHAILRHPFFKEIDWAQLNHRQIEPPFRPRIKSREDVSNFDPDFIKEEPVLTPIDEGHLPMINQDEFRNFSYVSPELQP

In the case of `Cc1ncc(F)c(Nc2n[nH]c3c2CN(C(=O)N2C[C@@H](C)N(CC4CCOCC4)C[C@@H]2C)C3(C)C)n1` [Cmpd 1, 5-[(2S,5R)-2,5-dimethyl-4-(tetrahydro-2H-pyran-4-ylmethyl)piperazin-l-yl]carbonyl-N-(5-fluoro-2-methylpyrimidin-4-yl)-6,6-dimethyl-1,4,5,6-tetrahydropyrrolo[3,4-c]pyrazol-3-amine], the IC50 in series [1] worked out at 623 nM. In series [2], the IC50 is 1520 nM. In series [3], the Body weight loss result is reported as “did not”. For the same compound, the “Progressive decline in renal function (uMALB:creatinine ratio, 24-h urinary protein excretion)” value in series [4] (10-week study, same in Food matched group) was “virtually halted”. In series [4] (10 weeks Cmpd 1 chow), the “Average body weight at study termination” value was 504 g and 504 ± 35 g; the “Estimated food consumption at study termination” value is recorded as 31 g/day. The “Body weight less than Lean animals at study termination” value in series [4] (10 weeks, not statistically different) is on record as “approximately 7%”. For the same compound, in series [4] (Cmpd 1 chow approx. 50 mpk/day), the “Estimated average food consumption, first three days” value is recorded as 22 g/day and the “Reduction in food consumption versus Obese group, first three days” value was determined as 27%. Further, the “Animals with liver macrovacuolation score of 0” value in series [4] (after 10 weeks of dosing, score 0–3) is on record as “five of eight”. Also, the “ESRD score at study termination” value in series [4] (blinded histology, versus Obese, comparable to Food matched group) is reported as “reduced comparably”. In series [4] (non-fasting serum), the “Serum cholesterol and triglyceride profile versus Obese group” value is reported as “improved”; the Serum glucose levels entry was “elevated”. In addition, the “Serum AST versus Obese group” value in series [4] (non-fasting, 5 weeks, statistically significant, not evident at 10 weeks) is on record as “increased”. Besides, the “Serum ALT versus Obese group” value in series [4] (non-fasting, 10 weeks, statistically significant) is “reduced”. Also, the Serum insulin in series [4] (non-fasting, week 5 study midpoint) is reported as 0.62 (± 0.35) ng/mL. Besides, the “ESRD severity grade of representative kidney image” value in series [4] (study endpoint, representative image Fig. 6c) was “Grade 1 (Grade 1 (minimal): < 10% of parenchyma affected)”. The “Average body weight at study start” value in series [4] (study start, 21–22 weeks of age) was 564 g. Further, in series [4] (study termination), the iWAT weight was found to be 29 ± 5.5 g. In addition, the “Increase in adipocyte size in iWAT” value in series [4] (study termination, histology, not in Food matched group) is listed as “blunted”. For the same compound, in series [4] (study termination, immunohistochemistry), the “Average CD45+ cell staining area in iWAT” value was 0.045 ± 0.025%. Also, the Liver weights entry in series [4] (study termination, primarily reflected overall body weight differences) is given as “reduced”.

The values above are taken from paper PMC10560236, “A protein kinase C α and β inhibitor blunts hyperphagia to halt renal function decline and reduces adiposity in a rat model of obesity-driven type 2 diabetes” (Scientific Reports, 2023).
